According to patent US9174980B2, “Heterocyclic compounds as inhibitors of leukotriene production” (Boehringer Ingelheim International GmbH, priority 2012, dated 2015):
Like-named read-outs stand apart in the source and are kept apart here.

Assays:
[1] = system: synthesis of LTB4 in human whole blood; test: Human whole blood assay (calcimycin-stimulated LTB4 synthesis); format: cell-based; details: read-out: Human Whole Blood LTB4 Assay for FLAP (IC50 nM)
Procedure, shortened: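 LTB4 levels in plasma were measured by antibody-based HTRF after heparinized human whole blood, pretreated with compound (15 min, 37° C), was challenged with 20 μM calcimycin for 30 min at 37° C.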

[2] = biological target: T1, recombinant human FLAP protein (Homo sapiens, UniProt P20292); test: FLAP binding assay (Scintillation Proximity Assay, displacement of [125I]L-691,831); details: read-out: Human FLAP SPA Binding (IC50 nM)
T1 construct: made in house; host or cells: Sf9 insect cells (membrane fraction, 100,000 x g pellet)
T1 sequence (P20292 1-161): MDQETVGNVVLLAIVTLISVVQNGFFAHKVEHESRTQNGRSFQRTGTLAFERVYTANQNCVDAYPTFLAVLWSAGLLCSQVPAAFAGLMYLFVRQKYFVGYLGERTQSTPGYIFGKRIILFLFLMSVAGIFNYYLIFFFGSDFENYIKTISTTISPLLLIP
Procedure, shortened: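 Scintillation proximity displacement format: 0.08 nM iodinated MK-591 analog [125I]L-691,831 competes with test compound for human FLAP in sf9 insect-cell membranes (5 μg/well, WGA beads), 2 h with shaking, pH 7.5 Tris buffer. 10 μM cold L-691,831 defines non-specific binding.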

Row | SMILES | IC50 ([1]; Homo sapiens) [nM] | IC50 [2] [nM] | IC50 [1] [nM]
1 | Cn1cc(C(c2ccc(-c3cnc(N)nc3)nc2)C(C)(C)C)c2ccccc21 (stereo not drawn) [Example 122, 5-{5-[2,2-dimethyl-1-(1-methyl-1H-indol-3-yl)propyl]pyridin-2-yl}pyrimidin-2-amine] | > 5000 | 75 | –
2 | Nc1ncc(-c2ccc(C3(c4nc5ncccc5[nH]4)CCC3)cc2)cn1 [Example 125, 5-{4-[1-(1H-imidazo[4,5-b]pyridin-2-yl)cyclobutyl]phenyl}pyrimidin-2-amine] | 3400 | 250 | –
3 | Nc1ncc(-c2ccc(C3(c4nc5cnccc5[nH]4)CCC3)cc2)cn1 [Example 126, 5-{4-[1-(1H-imidazo[4,5-c]pyridin-2-yl)cyclobutyl]phenyl}pyrimidin-2-amine] | 1800 | 71 | –
4 | Nc1ncc(-c2ccc(C3(c4nc5ccccc5s4)CCC3)cc2)cn1 [Example 128, 5-{4-[1-(1,3-benzothiazol-2-yl)cyclobutyl]phenyl}pyrimidin-2-amine] | 2300 | 8.1 | –
5 | Cc1ccc(-c2nnc(C3(c4ccc(-c5cnc(N)nc5)cc4)CCC3)[nH]2)cn1 [Example 129, 5-(4-{1-[5-(6-methylpyridin-3-yl)-4H-1,2,4-triazol-3-yl]cyclobutyl}phenyl)pyrimidin-2-amine] | 4000 | 7.6 | –
6 | c1cnc2[nH]cc(C3(c4ccc(-c5cnc6[nH]ccc6c5)cc4)CCC3)c2c1 [Example 130, 3-{1-[4-(1H-pyrrolo[2,3-b]pyridin-5-yl)phenyl]cyclobutyl}-1H-pyrrolo[2,3-b]pyridine] | 140 | 1.5 | –
7 | Cc1ccc(-c2nnc(C3(c4ccc(-c5cnc(N)nc5)cc4)CCC3)s2)cn1 [Example 131, 5-(4-{1-[5-(6-methylpyridin-3-yl)-1,3,4-thiadiazol-2-yl]cyclobutyl}phenyl)pyrimidin-2-amine] | 920 | 5.5 | –
8 | Nc1ncc(-c2ccc(C3(c4c[nH]c5c(C(=O)N6CC[C@@H](O)C6)cccc45)CCC3)cc2)cn1 [Example 134, (3-{1-[4-(2-aminopyrimidin-5-yl)phenyl]cyclobutyl}-1H-indol-7-yl)[(3R)-3-hydroxypyrrolidin-1-yl]methanone] | 270 | 1.8 | –
9 | Nc1ncc(-c2ccc(C3(c4c[nH]c5c(C(=O)N6CC[C@H](O)C6)cccc45)CCC3)cc2)cn1 [Example 135, (3-{1-[4-(2-aminopyrimidin-5-yl)phenyl]cyclobutyl}-1H-indol-7-yl)[(3S)-3-hydroxypyrrolidin-1-yl]methanone] | 500 | 2.3 | –
10 | Nc1ncc(-c2ccc(C3(c4nc5ccccc5[nH]4)CCC3)cn2)cn1 [Example 137, 5-{5-[1-(1H-benzimidazol-2-yl)cyclobutyl]pyridin-2-yl}pyrimidin-2-amine] | > 5000 | 410 | –
11 | Nc1ncc(-c2ccc(C3(c4nc5ccccc5o4)CCC3)cn2)cn1 [Example 138, 5-{5-[1-(1,3-benzoxazol-2-yl)cyclobutyl]pyridin-2-yl}pyrimidin-2-amine] | 990 | 18 | –
12 | Nc1ncc(-c2ccc(C3(c4nc5ccccc5[nH]4)CCC3)cc2)cn1 [Example 139, 5-{4-[1-(1H-benzimidazol-2-yl)cyclobutyl]phenyl}pyrimidin-2-amine] | > 5000 | 27 | –
13 | Nc1ncc(-c2ccc(C3(c4nc5ccccc5s4)CCC3)cn2)cn1 [Example 140, 5-{5-[1-(1,3-benzothiazol-2-yl)cyclobutyl]pyridin-2-yl}pyrimidin-2-amine] | > 5000 | 10 | –
14 | Cc1cc2c(C3(c4ccc(-c5cnc(N)nc5)cc4)CCC3)c[nH]c2cn1 [Example 141, 5-{4-[1-(5-methyl-1H-pyrrolo[2,3-c]pyridin-3-yl)cyclobutyl]phenyl}pyrimidin-2-amine] | 350 | 5.8 | –
15 | Nc1ncc(-c2ccc(C3(c4nnc(-c5ccc(F)cc5)[nH]4)CCC3)cn2)cn1 [Example 143, 5-(5-{1-[5-(4-fluorophenyl)-4H-1,2,4-triazol-3-yl]cyclobutyl}pyridin-2-yl)pyrimidin-2-amine] | 1500 | 12 | –
16 | COc1ccc(-c2nnc(C3(c4ccc(-c5cnc(N)nc5)cc4)CCC3)[nH]2)cn1 [Example 144, 5-(4-{1-[5-(6-methoxypyridin-3-yl)-4H-1,2,4-triazol-3-yl]cyclobutyl}phenyl)pyrimidin-2-amine] | 2500 | 4 | –
17 | COc1nccc2c(C3(c4ccc(-c5cnc(N)nc5)cc4)CCC3)c[nH]c12 [Example 145, 5-{4-[1-(7-methoxy-1H-pyrrolo[2,3-b]pyridin-3-yl)cyclobutyl]phenyl}pyrimidin-2-amine] | – | 1.7 | 150

Second part, the compound after the results:

Row | IC50 ([1]; Homo sapiens) [nM] | IC50 [2] [nM] | IC50 [1] [nM] | SMILES
18 | > 5000 | 7.9 | – | COC(=O)Cn1cc(C2(c3ccc(-c4cnc(N)nc4)cc3)CCC2)c2ccccc21 [Example 123, methyl (3-{1-[4-(2-aminopyrimidin-5-yl)phenyl]cyclobutyl}-1H-indol-1-yl)-acetate]
19 | > 5000 | 5.5 | – | Nc1ncc(-c2ccc(C3(c4cn(CC(=O)O)c5ccccc45)CCC3)cc2)cn1 [Example 124, (3-{1-[4-(2-aminopyrimidin-5-yl)phenyl]cyclobutyl}-1H-indol-1-yl)acetic acid]
20 | 1900 | 7.2 | – | Nc1ncc(-c2ccc(C3(c4nc5ccccc5o4)CCC3)cc2)cn1 [Example 127, 5-{4-[1-(1,3-benzoxazol-2-yl)cyclobutyl]phenyl}pyrimidin-2-amine]
21 | > 5000 | 7.2 | – | CN(CCO)C(=O)Cn1cc(C2(c3ccc(-c4cnc(N)nc4)cc3)CCC2)c2ccccc21 [Example 132, 2-(3-{1-[4-(2-aminopyrimidin-5-yl)phenyl]cyclobutyl}-1H-indol-1-yl)-N-(2-hydroxyethyl)-N-methylacetamide]
22 | > 5000 | 7.5 | – | Nc1ncc(-c2ccc(C3(c4cn(CC(=O)N5CC(O)C5)c5ccccc45)CCC3)cc2)cn1 [Example 133, 2-(3-{1-[4-(2-aminopyrimidin-5-yl)phenyl]cyclobutyl}-1H-indol-1-yl)-1-(3-hydroxyazetidin-1-yl)ethanone]
23 | > 5000 | 190 | – | Cn1c(C2(c3ccc(-c4cnc(N)nc4)cc3)CCC2)nc2ccccc21 [Example 136, 5-{4-[1-(1-methyl-1H-benzimidazol-2-yl)cyclobutyl]phenyl}pyrimidin-2-amine]
24 | 310 | 1.7 | – | CN1CCN(C(=O)c2cccc3c(C4(c5ccc(-c6cnc(N)nc6)cc5)CCC4)c[nH]c23)CC1 [Example 146]
25 | > 5000 | 7.9 | – | NC(=O)Cn1cc(C2(c3ccc(-c4cnc(N)nc4)cc3)CCC2)c2ccccc21 [Example 147]
26 | 3100 | 9 | – | Nc1ncc(-c2ccc(C3(c4cn(CC(=O)N5CCOCC5)c5ccccc45)CCC3)cc2)cn1 [Example 148, 2-(3-{1-[4-(2-aminopyrimidin-5-yl)phenyl]cyclobutyl}-1H-indol-1-yl)-1-(morpholin-4-yl)ethanone]
27 | 110 | 2 | – | Nc1ncc(-c2ccc(C3(c4c[nH]c5c(C(=O)N6CCC6)cccc45)CCC3)cc2)cn1 [Example 149, (3-{1-[4-(2-aminopyrimidin-5-yl)phenyl]cyclobutyl}-1H-indol-7-yl)(azetidin-1-yl)methanone]
